PubChem BioAssay (NCI)
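Growth conditions: 96-well plates. Treatment: test compound, 48 hours, 5 concentrations. Analysis: linear interpolation between bracketing concentrations; unreached endpoints set to highest concentration. GI50: concentration for 50% inhibition of growth. The concentration for full growth arrest is given as TGI.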

What was measured:
Assay in all cases: growth of human tumour cells (NCI), 48 h
[1] = test system: 786-0 renal
[2] = test system: A498 renal
[3] = test system: A549 NSCLC
[4] = test system: ACHN renal
[5] = test system: BT-549 breast
[6] = test system: CAKI-1 renal
[7] = test system: CCRF-CEM leukemia
[8] = test system: COLO 205 colon
[9] = test system: DU-145 prostate
[10] = test system: EKVX NSCLC
[11] = test system: HCC-2998 colon
[12] = test system: HCT-116 colon
[13] = test system: HCT-15 colon
[14] = test system: HL-60(TB) leukemia
[15] = test system: HOP-62 NSCLC
[16] = test system: HOP-92 NSCLC
[17] = test system: HS 578T breast
[18] = test system: HT29 colon
[19] = test system: IGROV1 ovarian
[20] = test system: K-562 leukemia
[21] = test system: KM12 colon
[22] = test system: LOX IMVI melanoma
[23] = test system: M14 melanoma
[24] = test system: MALME-3M melanoma
[25] = test system: MCF7 breast
[26] = test system: MDA-MB-231 breast
[27] = test system: MDA-MB-435
[28] = test system: MOLT-4 leukemia
[29] = test system: NCI-H226 lung
[30] = test system: NCI-H23 lung
[31] = test system: NCI-H460 lung
[32] = test system: NCI-H522 lung
[33] = test system: NCI/ADR-RES ovarian
[34] = test system: OVCAR-3 ovarian
[35] = test system: OVCAR-4 ovarian
[36] = test system: OVCAR-5 ovarian
[37] = test system: OVCAR-8 ovarian
[38] = test system: PC-3 prostate
[39] = test system: RPMI-8226 leukemia
[40] = test system: RXF 393 renal
[41] = test system: SF-268 CNS
[42] = test system: SF-295 CNS
[43] = test system: SF-539 CNS
[44] = test system: SK-MEL-2 melanoma
[45] = test system: SK-MEL-28 melanoma
[46] = test system: SK-MEL-5 melanoma
[47] = test system: SK-OV-3 ovarian
[48] = test system: SN12C renal
[49] = test system: SNB-19 CNS
[50] = test system: SW-620 colon
[51] = test system: T-47D breast
[52] = test system: TK-10 renal
[53] = test system: U251 CNS
[54] = test system: UACC-257 melanoma
[55] = test system: UACC-62 melanoma
[56] = test system: UO-31 renal

CCOc1cc2ncc(C#N)c(Nc3ccc(F)c(Cl)c3)c2cc1NC(=O)CC1CCSS1 (configuration not stated) was tested, and the GI50 [1] was 1840 nM, the TGI [1] was 12.9 µM and the GI50 [2] was 3.05 µM. For the same molecule, the TGI [2] was 11.4 µM, the GI50 [3] was 616 nM and the TGI [3] was 1160 nM. It also gave a GI50 [4] of 429 nM, a TGI [4] of 1150 nM and a GI50 [5] of 1500 nM. For the same molecule, the TGI [5] was 7.46 µM, the GI50 [6] was 979 nM and the TGI [6] was 4.59 µM. It also gave a GI50 [7] of 792 nM, a TGI [7] of 2060 nM and a GI50 [8] of 982 nM. For the same molecule, the TGI [8] was 3.39 µM, the GI50 [9] was 580 nM and the TGI [9] was 1280 nM. For the same molecule, the GI50 [10] was 476 nM, the TGI [10] was 1930 nM and the GI50 [11] was 569 nM. For the same molecule, the TGI [11] was 1100 nM, the GI50 [12] was 630 nM and the TGI [12] was 1270 nM. The GI50 [13] was 649 nM, the TGI [13] was 1700 nM and the GI50 [14] was 930 nM. It also gave a TGI [14] of 4 µM, a GI50 [15] of 533 nM and a TGI [15] of 1160 nM. For the same molecule, the GI50 [16] was 3.24 µM, the TGI [16] was 13.7 µM and the GI50 [17] was 1390 nM. The TGI [17] was 11.7 µM, the GI50 [18] was 603 nM and the TGI [18] was 1200 nM. The GI50 [19] was 392 nM, the TGI [19] was 1630 nM and the GI50 [20] was 881 nM. It also gave a TGI [20] of 2290 nM, a GI50 [21] of 563 nM and a TGI [21] of 1130 nM. The GI50 [22] was 579 nM, the TGI [22] was 1170 nM and the GI50 [23] was 572 nM. The TGI [23] was 1330 nM, the GI50 [24] was 1640 nM and the TGI [24] was 6.41 µM. It also gave a GI50 [25] of 694 nM, a TGI [25] of 1900 nM and a GI50 [26] of 833 nM. It also gave a TGI [26] of 2000 nM, a GI50 [27] of 597 nM and a TGI [27] of 1230 nM. The GI50 [28] was 748 nM, the TGI [28] was 1890 nM and the GI50 [29] was 2110 nM. For the same molecule, the TGI [29] was 7.4 µM, the GI50 [30] was 1120 nM and the TGI [30] was 4.55 µM. The GI50 [31] was 676 nM, the TGI [31] was 1410 nM and the GI50 [32] was 786 nM. For the same molecule, the TGI [32] was 4.7 µM, the GI50 [33] was 751 nM and the TGI [33] was 2040 nM. For the same molecule, the GI50 [34] was 717 nM, the TGI [34] was 2080 nM and the GI50 [35] was 663 nM. For the same molecule, the TGI [35] was 2350 nM, the GI50 [36] was 2100 nM and the TGI [36] was 13.5 µM. It also gave a GI50 [37] of 809 nM, a TGI [37] of 1920 nM and a GI50 [38] of 629 nM. For the same molecule, the TGI [38] was 1210 nM, the GI50 [39] was 1640 nM and the TGI [39] was 33.3 µM. The GI50 [40] was 1130 nM, the TGI [40] was 3.97 µM and the GI50 [41] was 740 nM. The TGI [41] was 2230 nM, the GI50 [42] was 1650 nM and the TGI [42] was 6.67 µM. It also gave a GI50 [43] of 5 µM, a TGI [43] of 17.4 µM and a GI50 [44] of 697 nM. It also gave a TGI [44] of 2000 nM, a GI50 [45] of 659 nM and a TGI [45] of 1530 nM. It also gave a GI50 [46] of 3.24 µM, a TGI [46] of 7.23 µM and a GI50 [47] of 509 nM. For the same molecule, the TGI [47] was 990 nM, the GI50 [48] was 880 nM and the TGI [48] was 2500 nM. For the same molecule, the GI50 [49] was 1980 nM, the TGI [49] was 12.3 µM and the GI50 [50] was 1040 nM. It also gave a TGI [50] of 3.57 µM, a GI50 [51] of 1380 nM and a TGI [51] of 6.92 µM. For the same molecule, the GI50 [52] was 556 nM, the TGI [52] was 1480 nM and the GI50 [53] was 1100 nM. It also gave a TGI [53] of 3.46 µM, a GI50 [54] of 1960 nM and a TGI [54] of 6.92 µM. The GI50 [55] was 1970 nM, the TGI [55] was 7.28 µM and the GI50 [56] was 395 nM. The TGI [56] was 955 nM.
